Drawing on patent publication US11179391B2, “Compound with kinase inhibitory activity and preparation method and use thereof” (priority 2017, dated 2021), this text covers IC50 for seven molecules.

Where a name gives a salt, the structure may show the parent alone. Read-outs that look alike come from different tables or passages of the source.

What all share (format): biochemical
The target of one assay is CDK1/CyclinB (Homo sapiens, UniProt P06493). Kind of assay: Determination of CDK activity (Caliper mobility shift, FAM-P8 peptide): CDK1. The following applies: read-out: CDK1 enzymatic inhibitory activity (IC50). On the procedure:
(§1) In vitro, CDK (CDK4, CDK6, CDK1, CDK2, CDK7, and CDK9) kinase activity was tested by the following method.
(§2) 1. Prepared 1× Kinase Buffer and Stop Buffer for the Test
(§3) 1) 1× Kinase Base Buffer (CDK1, 2, and 6).
(§4) 1) Diluted the compound to 50 times of the maximum concentration with 100% DMSO. For example, if the desired maximum inhibitory concentration is 10 μM, then a DMSO solution of 500 μM concentration is required.
(§5) 2) Transferred the compound to a 96-well plate and serially diluted the compound from a 100% DMSO solution at a ratio of 30 μm to 60 μm for a total of 10 concentrations gradients. 3) Transferred 100 μm of 100% DMSO to two empty wells as a no compound control and a no enzyme control.
(§6) 1) Transferred 5 μm of each compound from the 96-well intermediate plate to a 384-well plate. […] A2 of the 96-well plate was transferred to A3 and A4 of the 384-well plate, and so on.
(§7) 1) Prepared a 2.5× enzyme solution: added kinase into 1× kinase base buffer.
(§8) 2) Prepared a 2.5× peptide solution: added FAM-labeled peptide and ATP into the 1× kinase base buffer.
(§9) 3) Transferred the 2.5× enzyme solution to the assay plate: Assay plate already contained 5 μm of 10% DMSO and transferred 10 μm of 2.5× enzyme solution to each well.
(§10) 4) Incubated at room temperature for 10 min.
(§11) 5) Transferred the 2.5× peptide solution to the assay plate: added 10 μm of 2.5× peptide solution to each well of the 384-well assay plate.
(§12) 6) Kinase reaction and termination: incubated at 28° C. for a specified period and added 25 μm of stop buffer to stop the reaction.
(§13) 5. Caliper Reading: Collect Data on Caliper.
(§14) 1) Copied conversion data from Caliper program and Converted conversion values to inhibition values: Inhibition rate (%)=(1−OD value of the compound-OD value of the control well)/(OD value of the control empty-OD value of the control well)*100%.
(§15) 2) Fitted the data in XLFit excel add-in version 4.3.1 to give the corresponding IC50 values.

The next assay addresses CDK4/CycD3 (Homo sapiens, UniProt P11802). Briefly: Determination of CDK activity (Caliper mobility shift, FAM-P8 peptide): CDK4. Conditions: read-out: CDK4 enzymatic inhibitory activity (IC50). On the procedure: as §1
(§16) CDK and raw materials used here: CDK4/CycD3 (Carna, Cat. No 04-105, Lot. No 10CBS-0429 C, GST-CDK4(1-303end)/GST-CycD3(1-292end)); CDK6/cycD3 (Carna, Cat. No 04-107, Lot. No 09CBS-0622K, GST-CDK6(1-326(end))); CDK1/CyclinB (Millipore, Cat. 14-450k, Lot. No 25729U, His-CDK1+GST-cyclinB); CDK2/CycA2 (Carna, Cat. No 04-103, Lot. No 06CBS-3024, GST-CDK2 (1-298(end))); CDK7/CyclinH/MAT1 (Millipore, Cat. No 14-476M, Lot. No WAB0365-A, His-CDK7+GST-MAT1+cyclinH); CDK9/cyclinTl (Millipore, Cat. No 14-685K, Lot. No. 2476163-A, His-CDK9+cyclinTl); Peptide FAM-P8 (GL Biochem, Cat. No. 112396, Lot. No. P100804-XZ112396); ATP (Sigma, Cat. No. A7699-1G, CAS No. 987-65-5); DMSO (Sigma, Cat. No. D2650, Lot. No. 474382); EDTA (Sigma, Cat. No. E5134, CAS No. 60-00-4); 96-well plate (Corning, Cat. No. 3365, Lot. No. 22008026); 384-well plate (Corning, Cat. No. 3573, Lot. No. 12608008); Staurosporine (Sigma, Cat. No. S4400-1MG, Lot. No. 046K4080).
as §2
2) 1× Kinase Base Buffer (CDK4).
as §4, §5
(§17) 4) Prepared intermediate plate and transferred the compound of 10 μm concentration from the original plate to the intermediate plate, and then 90 μm of 1× kinase buffer was added and mixed by shaking for 10 min.
(§18) 4) Preparing intermediate plate and transferred the compound of […] concentration from the original plate to the intermediate plate, and then 90 μm of 1× kinase buffer was added and mixed by shaking for 10 min.
(§19) 1) Transferred 5 μm of each compound from the 96-well intermediate plate to a 384-well plate. For example, A1 of the 96-well plate was transferred to A1 and A2 of the 384-well plate. A2 of the 96-well plate was transferred to A3 and A4 of the 384-well plate, and so on.
as §7, §8, §9, §10, §11, §12, §13, §14, §15

The next assay addresses CDK2/CycA2 (Homo sapiens, UniProt P24941). Kind of assay: Determination of CDK activity (Caliper mobility shift, FAM-P8 peptide): CDK2. Conditions: read-out: CDK2 enzymatic inhibitory activity (IC50). On the procedure: as §1, §2, §3, §4, §5, §6, §7, §8, §9, §10, §11, §12, §13, §14, §15
Another assay addresses CDK9/cyclinTl (Homo sapiens, UniProt P50750). Kind of assay: Determination of CDK activity (Caliper mobility shift, FAM-P8 peptide): CDK9. Conditions: read-out: CDK9 enzymatic inhibitory activity (IC50). On the procedure: as §1, §2
(§20) 3) 1× Kinase Base Buffer (CDK7 and 9).
as §4, §5, §6, §7, §8, §9, §10, §11, §12, §13, §14, §15

The target in the next assay is CDK6/cycD3 (Homo sapiens, UniProt Q00534). Briefly: Determination of CDK activity (Caliper mobility shift, FAM-P8 peptide): CDK6. The following applies: read-out: CDK6 enzymatic inhibitory activity (IC50). The method, then:
as §1, §16, §2, §3, §4, §5, §17, §18, §19, §7, §8, §9, §10, §11, §12, §13, §14, §15

A further assay deals with CDK7/CyclinH/MAT1 (Homo sapiens, UniProt P50613). Briefly: Determination of CDK activity (Caliper mobility shift, FAM-P8 peptide): CDK7. The following applies: read-out: CDK7 enzymatic inhibitory activity (IC50). The method, then:
as §1, §16, §2, §20, §4, §5, §17, §18, §19, §7, §8, §9, §10, §11, §12, §13, §14, §15

Sequence of CDK7/CyclinH/MAT1 (P50613 whole entry): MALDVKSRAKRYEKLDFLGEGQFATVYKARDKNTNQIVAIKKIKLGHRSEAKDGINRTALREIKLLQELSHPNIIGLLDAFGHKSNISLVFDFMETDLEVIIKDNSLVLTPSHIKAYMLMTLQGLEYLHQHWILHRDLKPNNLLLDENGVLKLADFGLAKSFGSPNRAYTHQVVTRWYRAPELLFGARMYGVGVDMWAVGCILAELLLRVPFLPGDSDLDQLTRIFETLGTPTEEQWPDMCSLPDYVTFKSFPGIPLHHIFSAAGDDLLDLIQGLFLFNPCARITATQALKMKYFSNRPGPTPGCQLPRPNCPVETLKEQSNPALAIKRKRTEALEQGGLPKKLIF
Sequence of CDK7/CyclinH/MAT1 (P51946 whole entry partner): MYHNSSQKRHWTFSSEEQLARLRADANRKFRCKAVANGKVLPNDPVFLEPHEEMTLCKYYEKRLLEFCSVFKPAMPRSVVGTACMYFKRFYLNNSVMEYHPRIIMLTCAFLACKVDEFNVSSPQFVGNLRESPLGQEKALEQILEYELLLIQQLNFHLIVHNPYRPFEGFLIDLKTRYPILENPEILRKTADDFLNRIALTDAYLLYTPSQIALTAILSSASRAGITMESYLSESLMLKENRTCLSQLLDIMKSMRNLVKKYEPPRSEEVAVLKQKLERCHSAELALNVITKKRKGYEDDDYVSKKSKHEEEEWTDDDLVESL
Sequence of CDK7/CyclinH/MAT1 (P51948 whole entry partner): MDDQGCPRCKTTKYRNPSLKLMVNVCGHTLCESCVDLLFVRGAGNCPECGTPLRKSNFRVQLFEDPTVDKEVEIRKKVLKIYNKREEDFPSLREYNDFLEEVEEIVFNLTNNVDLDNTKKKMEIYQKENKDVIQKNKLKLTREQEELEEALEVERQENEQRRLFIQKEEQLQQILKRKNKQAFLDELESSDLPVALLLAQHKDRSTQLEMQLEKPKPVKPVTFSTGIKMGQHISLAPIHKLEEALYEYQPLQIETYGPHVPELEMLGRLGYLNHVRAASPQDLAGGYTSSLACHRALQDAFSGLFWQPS
Sequence of CDK4/CycD3 (P11802 whole entry): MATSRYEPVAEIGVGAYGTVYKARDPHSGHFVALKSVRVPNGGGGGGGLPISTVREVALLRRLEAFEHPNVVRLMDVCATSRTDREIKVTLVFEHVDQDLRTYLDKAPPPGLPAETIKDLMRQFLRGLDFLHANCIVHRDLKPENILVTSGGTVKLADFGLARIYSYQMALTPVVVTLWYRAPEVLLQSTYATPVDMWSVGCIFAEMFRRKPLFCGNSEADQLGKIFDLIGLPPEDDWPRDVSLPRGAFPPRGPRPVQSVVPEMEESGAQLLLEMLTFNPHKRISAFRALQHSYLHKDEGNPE
Sequence of CDK4/CycD3 (P30281 whole entry partner): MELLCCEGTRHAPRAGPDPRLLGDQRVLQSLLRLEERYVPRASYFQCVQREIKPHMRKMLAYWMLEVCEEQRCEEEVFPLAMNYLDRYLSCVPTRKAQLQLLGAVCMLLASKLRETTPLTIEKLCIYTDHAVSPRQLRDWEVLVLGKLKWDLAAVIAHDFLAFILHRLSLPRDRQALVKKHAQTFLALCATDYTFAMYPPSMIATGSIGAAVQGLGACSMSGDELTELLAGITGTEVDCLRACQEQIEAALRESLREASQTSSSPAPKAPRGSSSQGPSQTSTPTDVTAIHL
Sequence of CDK9/cyclinTl (P50750 whole entry): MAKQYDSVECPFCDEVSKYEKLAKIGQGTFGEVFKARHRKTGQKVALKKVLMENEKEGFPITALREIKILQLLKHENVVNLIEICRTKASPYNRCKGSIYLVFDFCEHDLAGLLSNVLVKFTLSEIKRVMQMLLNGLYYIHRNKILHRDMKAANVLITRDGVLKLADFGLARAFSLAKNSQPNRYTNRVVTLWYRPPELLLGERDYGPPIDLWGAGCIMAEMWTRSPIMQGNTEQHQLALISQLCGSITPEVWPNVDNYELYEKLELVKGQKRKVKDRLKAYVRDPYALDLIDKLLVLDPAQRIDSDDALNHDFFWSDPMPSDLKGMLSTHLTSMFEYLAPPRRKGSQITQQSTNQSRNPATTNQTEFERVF
Sequence of CDK9/cyclinTl (O60563 whole entry partner): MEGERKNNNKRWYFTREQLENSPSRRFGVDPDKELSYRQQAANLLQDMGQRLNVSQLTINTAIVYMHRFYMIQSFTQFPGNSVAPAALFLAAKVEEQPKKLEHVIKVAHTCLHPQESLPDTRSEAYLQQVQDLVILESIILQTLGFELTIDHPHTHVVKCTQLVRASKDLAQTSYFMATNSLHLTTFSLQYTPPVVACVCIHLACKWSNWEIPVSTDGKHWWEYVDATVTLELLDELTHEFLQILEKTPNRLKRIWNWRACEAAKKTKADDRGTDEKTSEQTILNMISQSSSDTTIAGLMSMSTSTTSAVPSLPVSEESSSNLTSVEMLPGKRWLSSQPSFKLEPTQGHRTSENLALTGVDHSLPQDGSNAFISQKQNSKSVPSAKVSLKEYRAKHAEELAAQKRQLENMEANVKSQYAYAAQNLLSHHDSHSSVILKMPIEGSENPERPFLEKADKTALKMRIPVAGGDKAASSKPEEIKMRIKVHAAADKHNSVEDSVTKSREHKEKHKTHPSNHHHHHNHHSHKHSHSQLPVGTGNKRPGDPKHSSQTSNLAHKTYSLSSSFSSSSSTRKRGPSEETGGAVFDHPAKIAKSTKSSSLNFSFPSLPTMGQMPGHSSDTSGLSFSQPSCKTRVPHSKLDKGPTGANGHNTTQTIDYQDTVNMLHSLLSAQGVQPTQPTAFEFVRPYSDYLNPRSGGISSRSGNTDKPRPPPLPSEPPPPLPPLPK
Sequence of CDK6/cycD3 (Q00534 whole entry): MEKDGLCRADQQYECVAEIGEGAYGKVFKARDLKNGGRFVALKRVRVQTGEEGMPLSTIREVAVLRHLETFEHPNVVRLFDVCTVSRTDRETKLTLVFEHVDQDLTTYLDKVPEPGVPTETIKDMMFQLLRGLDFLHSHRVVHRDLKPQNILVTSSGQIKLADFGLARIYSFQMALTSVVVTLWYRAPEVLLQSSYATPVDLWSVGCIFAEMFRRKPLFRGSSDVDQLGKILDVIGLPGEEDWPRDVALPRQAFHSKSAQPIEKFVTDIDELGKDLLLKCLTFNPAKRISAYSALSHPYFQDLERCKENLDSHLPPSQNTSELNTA
Sequence of CDK6/cycD3 (P30281 whole entry partner): as the sequence (P30281 whole entry partner) above
Sequence of CDK1/CyclinB (P06493 whole entry): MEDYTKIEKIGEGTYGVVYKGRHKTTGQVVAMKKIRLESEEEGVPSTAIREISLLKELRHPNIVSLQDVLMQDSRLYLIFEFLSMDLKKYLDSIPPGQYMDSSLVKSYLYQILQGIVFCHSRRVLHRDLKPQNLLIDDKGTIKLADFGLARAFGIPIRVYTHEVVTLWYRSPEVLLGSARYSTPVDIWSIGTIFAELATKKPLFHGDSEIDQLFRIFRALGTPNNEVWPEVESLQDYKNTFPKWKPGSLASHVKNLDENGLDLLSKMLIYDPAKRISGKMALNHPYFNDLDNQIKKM
Sequence of CDK1/CyclinB (P14635 whole entry partner): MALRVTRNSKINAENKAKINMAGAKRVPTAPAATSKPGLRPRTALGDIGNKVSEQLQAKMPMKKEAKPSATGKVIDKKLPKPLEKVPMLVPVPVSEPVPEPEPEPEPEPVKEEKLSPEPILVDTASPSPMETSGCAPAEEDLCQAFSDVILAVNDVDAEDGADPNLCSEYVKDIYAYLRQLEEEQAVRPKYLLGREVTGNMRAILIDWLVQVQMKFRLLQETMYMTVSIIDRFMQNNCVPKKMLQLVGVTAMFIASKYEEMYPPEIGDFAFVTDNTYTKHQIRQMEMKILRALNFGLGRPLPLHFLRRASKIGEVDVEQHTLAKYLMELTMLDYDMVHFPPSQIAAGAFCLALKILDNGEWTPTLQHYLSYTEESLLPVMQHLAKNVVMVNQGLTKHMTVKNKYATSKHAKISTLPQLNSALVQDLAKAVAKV

What is called IC50 is the point on the concentration scale where inhibition reaches its midpoint. Consider `COCCCN1CCC([C@@H](C)c2ccc(Nc3ncc(F)c(-c4cc(F)c5nc(C)n(C(C)C)c5c4)n3)nc2)CC1` [Example 81], for which the IC50 on CDK1/CyclinB (CDK1/CyclinB) is 0.1 to 0.5 µM; at CDK4/CycD3 (CDK4/CycD3), below 0.1 µM; at CDK2/CycA2 (CDK2/CycA2), below 0.1 µM; at CDK9/cyclinTl (CDK9/cyclinTl), 0.1 to 0.5 µM; on CDK6/cycD3 (CDK6/cycD3) it was below 0.1 µM; on CDK7/CyclinH/MAT1 (CDK7/CyclinH/MAT1), 1 to 10 µM.
In the case of `Cc1nc2c(F)cc(-c3nc(Nc4ccc(C=C5CCN(CC(F)(F)F)CC5)cn4)ncc3F)cc2n1C(C)C` [Example 70], the IC50 at CDK1/CyclinB (CDK1/CyclinB) is 0.1 to 0.5 µM; at CDK4/CycD3 (CDK4/CycD3) it was below 0.1 µM; at CDK2/CycA2 (CDK2/CycA2), below 0.1 µM; on CDK9/cyclinTl (CDK9/cyclinTl) it was 0.1 to 0.5 µM; at CDK6/cycD3 (CDK6/cycD3) it was below 0.1 µM; at CDK7/CyclinH/MAT1 (CDK7/CyclinH/MAT1) it was 1 to 10 µM.
As for `Cc1nc2c(F)cc(-c3nc(Nc4ccc([C@H](C)C5CCN(CCO)CC5)cn4)ncc3F)cc2n1C(C)C` [Example 77], the IC50 at CDK1/CyclinB (CDK1/CyclinB) is 0.1 to 0.5 µM; on CDK4/CycD3 (CDK4/CycD3), below 0.1 µM; at CDK2/CycA2 (CDK2/CycA2), below 0.1 µM; on CDK9/cyclinTl (CDK9/cyclinTl), 0.1 to 0.5 µM; at CDK6/cycD3 (CDK6/cycD3) it was below 0.1 µM; on CDK7/CyclinH/MAT1 (CDK7/CyclinH/MAT1), 1 to 10 µM.
Turning to `CCN1CCC(C(OC(C)=O)c2ccc(Nc3ncc(F)c(-c4cc(F)c5nc(C)n(C(C)C)c5c4)n3)nc2)CC1` (single isomer, unassigned) [Example 72, (R or S)-(1-ethylpiperidin-4-yl) (6-((5-fluoro-4-(4-fluoro-1-isopropyl-2-methyl-1H-benzo[d]imidazol-6-yl)pyrimidin-2-yl)amino)pyridin-3-yl) methyl acetate], the IC50 was 0.1 to 0.5 µM on CDK1/CyclinB (CDK1/CyclinB); below 0.1 µM at CDK4/CycD3 (CDK4/CycD3); below 0.1 µM at CDK2/CycA2 (CDK2/CycA2); 0.1 to 0.5 µM at CDK9/cyclinTl (CDK9/cyclinTl); below 0.1 µM at CDK6/cycD3 (CDK6/cycD3); 1 to 10 µM at CDK7/CyclinH/MAT1 (CDK7/CyclinH/MAT1).
Regarding `Cc1nc2c(F)cc(-c3nc(Nc4ccc(C(O)C5CCNCC5)cn4)ncc3F)cc2n1C(C)C` (stereo not drawn) [Example 42, (6-((5-Fluoro-4-(4-fluoro-1-isopropyl-2-methyl-1H-benzo[d]imidazol-6-yl)pyrimidin-2-yl)amino)pyridin-3-yl)(piperidin-4-yl) methanol hydrochloride], the IC50 on CDK1/CyclinB was 0.1 to 0.5 µM; at CDK4/CycD3, 0.1 to 0.5 µM; on CDK2/CycA2 it was below 0.1 µM; on CDK9/cyclinTl it was 0.1 to 0.5 µM; at CDK6/cycD3, 0.1 to 0.5 µM; on CDK7/CyclinH/MAT1, 0.1 to 0.5 µM.
In the case of `Cc1nc2c(F)cc(-c3nc(Nc4ccc([C@@H](O)C5CCNCC5)cn4)ncc3F)cc2n1C(C)C` [Example 44], the IC50 lay within 0.1 to 0.5 µM at CDK1/CyclinB (CDK1/CyclinB); 0.1 to 0.5 µM on CDK4/CycD3 (CDK4/CycD3); 0.1 to 0.5 µM on CDK2/CycA2 (CDK2/CycA2); 0.5 to 1 µM at CDK9/cyclinTl (CDK9/cyclinTl); 0.1 to 0.5 µM on CDK6/cycD3 (CDK6/cycD3); 0.1 to 0.5 µM on CDK7/CyclinH/MAT1 (CDK7/CyclinH/MAT1).
On to `COCCN1CCC([C@@H](C)c2ccc(Nc3ncc(F)c(-c4cc(F)c5nc(C)n(C(C)C)c5c4)n3)nc2)CC1` (single isomer, unassigned) [Example 79], for which the IC50 was 0.1 to 0.5 µM on CDK1/CyclinB (CDK1/CyclinB); below 0.1 µM at CDK4/CycD3 (CDK4/CycD3); below 0.1 µM on CDK2/CycA2 (CDK2/CycA2); 0.1 to 0.5 µM at CDK9/cyclinTl (CDK9/cyclinTl); below 0.1 µM at CDK6/cycD3 (CDK6/cycD3); 1 to 10 µM on CDK7/CyclinH/MAT1 (CDK7/CyclinH/MAT1).
